pIC50: −log10 of the molar value. Where two headings read alike, the source gives them in different places.

For one data set, the system named is HCV replicon. Put plainly: microbe, parasite or virus in culture. The format is cell-based. The settings on record: Hepatitis C virus, 48 h; for pIC50: read-out: Replicon IC5Os; for IC50: read-out: Replicon IC5Os μM.

A word on the melting point: it is the temperature of the solid-liquid transition. For the molecule `CCOC(=O)Nc1ccc(-c2c(C#N)c3ccc(OC(F)F)cc3n2CC2CC2)cc1` [Compound 735], the melting point was 123 to 125 °C. Besides, in the data set with HCV replicon, the pIC50 is greater than 6.30.

Take `CC(C)OC(=O)Nc1ccc(-c2c(C#N)c3ccc(OC(F)F)cc3n2CC2CC2)cc1` [Compound 737]: the melting point fell in the range of 153 to 155 °C. Also, the pIC50 with HCV replicon is 5.70 to 6.30.

`N#Cc1c(-c2ccc(NC(=O)OCCF)cc2)n(CC2CC2)c2cc(OC(F)F)ccc12` [Compound 738]: the melting point lay within 149 to 151 °C. Further, the pIC50 in the data set with HCV replicon was greater than 6.30.

With `CCCNC(=O)Nc1ccc(-c2c(C#N)c3ccc(OC(F)F)cc3n2CC2CC2)cc1` [Compound 741], the melting point was in the range of 194 to 196 °C. Further, in the data set on HCV replicon, the pIC50 was greater than 6.30.

`CCCCNC(=O)Nc1ccc(-c2c(C#N)c3ccc(OC(F)F)cc3n2CC2CC2)cc1` [Compound 742] showed a melting point of 171 to 173 °C. Further, the pIC50 in the data set on HCV replicon was 5.70 to 6.30.

On to `N#Cc1c(-c2ccc(NC(=O)NC3CCCC3)cc2)n(CC2CC2)c2cc(OC(F)F)ccc12` [Compound 743], for which the melting point amounted to 129 °C. Further, the pIC50 in the data set on HCV replicon was greater than 6.30.

`COC(=O)Nc1cccc(-c2c(C#N)c3ccc(OC(F)F)cc3n2CC2CC2)c1` [Compound 744] showed a melting point of 92 to 93 °C. Besides, the pIC50 in the data set on HCV replicon was greater than 6.30.

In the case of `CCCCn1c(-c2ccc(NC(=O)OCCF)cc2)c(C#N)c2ccc(OC)cc21` [Compound 747], the melting point is 136 to 137 °C. In the data set on HCV replicon, the pIC50 was greater than 6.30.

In the case of `CCCCn1c(-c2ccc(NC(=O)NCC)cc2)c(C#N)c2ccc(OC)cc21` [Compound 748], the melting point was in the range of 186 to 188 °C. In addition, in the data set with HCV replicon, the pIC50 was greater than 6.30.

Turning to `CCCCn1c(-c2ccc(NC(=O)NCCC)cc2)c(C#N)c2ccc(OC)cc21` [Compound 749], the melting point was 176 to 178 °C. In addition, in the data set on HCV replicon, the pIC50 was greater than 6.30.

`CCCCNC(=O)Nc1ccc(-c2c(C#N)c3ccc(OC)cc3n2CCCC)cc1` [Compound 750] gave a melting point of 173 to 174 °C. The pIC50 in the data set on HCV replicon was greater than 6.30.

In the case of `CCCCn1c(-c2ccc(NC(=O)NC(C)C)cc2)c(C#N)c2ccc(OC)cc21` [Compound 751], the melting point fell in the range of 159 to 162 °C. Further, the pIC50 in the data set on HCV replicon was 5.70 to 6.30.

For the molecule `CCn1c(-c2ccc3c(c2)N(S(C)(=O)=O)CC3)c(C#N)c2ccc(OC)cc21` [Compound 752], the melting point was in the range of 198 to 202 °C. Moreover, in the data set on HCV replicon, the pIC50 is 5.70 to 6.30.

Consider `CCn1c(-c2ccc3c(c2)N(S(=O)(=O)CC)CC3)c(C#N)c2ccc(OC)cc21` [Compound 753, 1′-ethanesulfonyl-1-ethyl-6-methoxy-2′,3′-dihydro-1H,1H′-[2,6′]biindolyl-3-carbonitrile], for which the melting point was 157 to 161 °C. The pIC50 in the data set with HCV replicon is greater than 6.30.

Regarding `CCn1c(-c2ccc(N)cc2)c(C#N)c2ccc(OC(C)C)cc21` [Compound 758], the melting point lay in the range of 149 to 153 °C. Besides, the pIC50 with HCV replicon is greater than 6.30.

`CCn1c(-c2ccc(NC(=O)CCc3ccccc3)cc2)c(C#N)c2ccc(OC(C)C)cc21` [Compound 762]: the melting point is 190 to 193 °C. Further, in the data set on HCV replicon, the pIC50 is greater than 6.30.

The molecule `CCn1c(-c2ccc(NC(=O)c3ccccc3)cc2)c(C#N)c2ccc(OC(C)C)cc21` [Compound 763] yielded a melting point of 209.2 to 209.7 °C. Also, the pIC50 in the data set with HCV replicon was greater than 6.30.

Regarding `CCn1c(-c2ccc(NC(=O)c3ccc(F)cc3)cc2)c(C#N)c2ccc(OC(C)C)cc21` [Compound 764], the melting point lay in the range of 213.5 to 231.7 °C. Besides, in the data set on HCV replicon, the IC50 is less than 0.5 µM.

For `CCOc1ccc2c(C#N)c(-c3ccc(NC(=O)NCCCl)cc3)n(CC)c2c1` [Compound 774], the melting point was in the range of 205 to 206 °C. For the same molecule, the IC50 in the data set on HCV replicon fell in the range of 0.5 to 2 µM.

`COc1ccc2c(C#N)c(-c3cccc(N4CCCS4(=O)=O)c3)n(C(C)C)c2c1` [Compound 784] registered a melting point of 245 to 246 °C. Further, the IC50 in the data set with HCV replicon was in the range of 0.5 to 2 µM.

In turn, `CCCS(=O)(=O)Nc1ccc(-c2c(C#N)c3cc(OC)ccc3n2CC)cc1` [Compound 789] showed a melting point of 154 to 156 °C. Further, the IC50 in the data set with HCV replicon was less than 0.5 µM.

Regarding `CCn1c(-c2ccc(NS(=O)(=O)C3CC3)cc2)c(C#N)c2cc(OC)ccc21` [Compound 791], the melting point was in the range of 149 to 152 °C. Also, in the data set with HCV replicon, the IC50 is less than 0.5 µM.

In the case of `CCn1c(-c2ccc(NC(=O)OC)cc2)c(C#N)c2cc(OC)ccc21` [Compound 792], the melting point lay within 182 to 185 °C. Besides, in the data set with HCV replicon, the IC50 is less than 0.5 µM.

For `CCOC(=O)Nc1ccc(-c2c(C#N)c3cc(OC)ccc3n2CC)cc1` [Compound 793], the melting point lay in the range of 154 to 155 °C. The IC50 with HCV replicon is less than 0.5 µM.

For the molecule `CCCOC(=O)Nc1ccc(-c2c(C#N)c3cc(OC)ccc3n2CC)cc1` [Compound 794], the melting point is 149 to 151 °C. Also, the IC50 in the data set on HCV replicon was less than 0.5 µM.

With `CCn1c(-c2ccc(NC(=O)OC(C)C)cc2)c(C#N)c2cc(OC)ccc21` [Compound 795], the melting point fell in the range of 183 to 185 °C. Also, the IC50 in the data set with HCV replicon was less than 0.5 µM.

Turning to `CCn1c(-c2ccc(NC(=O)C3CCC3)cc2)c(C#N)c2ccc(OC)cc21` [Compound 801], the melting point lay within 199 to 219 °C. For the same molecule, the IC50 in the data set on HCV replicon is less than 0.5 µM.

With `CCn1c(-c2ccc(NC(=O)Cc3ccccc3)cc2)c(C#N)c2ccc(OC)cc21` [Compound 802], the melting point is 196 to 198 °C. Further, the IC50 in the data set on HCV replicon lay within 0.5 to 2 µM.

`CCn1c(-c2ccc(N3CCCC3=O)cc2)c(C#N)c2ccc(OC(F)F)cc21` [Compound 807] had a melting point of 171 to 172 °C. In addition, in the data set with HCV replicon, the IC50 was less than 0.5 µM.

With `C=CCNC(=O)Nc1cccc(-c2c(C#N)c3ccc(OC)cc3n2Cc2ccccc2)c1` [Compound 818], the melting point lay within 158 to 159 °C. Also, in the data set with HCV replicon, the IC50 was less than 0.5 µM.

Molecule `CC(C)OC(=O)Nc1ccc(-c2c(C#N)c3ccc(OC(F)F)cc3n2C2CCC2)cc1` [Compound 822] had a melting point of 144 to 145 °C. Moreover, the IC50 with HCV replicon lay within 0.5 to 2 µM.

The molecule `CCCn1c(-c2ccc(NS(=O)(=O)C3CC3)cc2)c(C#N)c2ccc(OC(F)F)cc21` [Compound 827] gave a melting point of 189 to 191 °C. Besides, the IC50 in the data set on HCV replicon is less than 0.5 µM.

As to `CCOc1ccc(-c2c(C#N)c3ccc(NS(C)(=O)=O)cc3n2CC)cc1` [Compound 834], the melting point was in the range of 179 to 180 °C. The IC50 in the data set on HCV replicon was 0.5 to 2 µM.

For the molecule `CCCn1c(-c2ccc(NC(=O)NCCc3ccccc3)cc2)c(C#N)c2ccc(OC)cc21` [Compound 848], the melting point lay in the range of 193 to 194 °C. For the same molecule, the IC50 in the data set on HCV replicon lay in the range of 0.5 to 2 µM.

For `CCCn1c(-c2ccc(NS(=O)(=O)CCCCl)cc2)c(C#N)c2ccc(OC)cc21` [Compound 850], the melting point was in the range of 179 to 180 °C. Besides, the IC50 with HCV replicon lay within 0.5 to 2 µM.

`CCCn1c(-c2ccc(NS(=O)(=O)C3CC3)cc2)c(C#N)c2ccc(OC)cc21` [Compound 851] gave a melting point of 186 to 187 °C. In addition, in the data set with HCV replicon, the IC50 was in the range of 0.5 to 2 µM.

For the molecule `CCn1c(-c2ccc(NC(=O)C3CCC3)cc2)c(C#N)c2cc(OC)ccc21` [Compound 859], the melting point was 191 to 192 °C. The IC50 with HCV replicon fell in the range of 0.5 to 2 µM.

The record behind these values is US8013006B2.
